Measured values published in ChEMBL document CHEMBL5331133, “Discovery of AZD4747, a Potent and Selective Inhibitor of Mutant GTPase KRASG12C with Demonstrable CNS Penetration” (J Med Chem, 2023).

Key:
[1] = Hepatic blood flow in CD-1 mouse at 2.3 microM/Kg, iv; type: ADME
[2] = Lipophilicity, logD of compound at 7.4; conditions: octanol/water, pH 7.4, logD
Mus musculus [3] = organism: Mus musculus; conditions: dose 10-30 mg/kg, route po, time 6.0 hrs
[4] = Hepatic extraction ratio in Beagle dog at 1.1 microM/Kg, iv; type: ADME, Canis lupus familiaris; conditions: at 1.1 µmol/kg, read-out: ERH
[5] = Hepatic extraction ratio in Wistar Han rat at 1.1 to 2.3 microM/Kg, iv; type: ADME; conditions: dose 1.1-2.3 µM/Kg, read-out: ERH
[6] = Toxicity in athymic nude mouse xenografted with human NCI-H358 cells harboring KRAS G12C mutant assessed as body weight change at 10 to 100 mg/kg, po for 21 days; type: organism-based; conditions: in vivo, 504 h, dose 10-100 mg/kg, time 21 day
[7] = Unbound brain-to-plasma concentration ratio in Wistar Han rat at 2.3 microM/Kg, iv and measured after 1 hrs in presence of pretreatment with elacridar for 0.5 hrs; type: ADME, organism-based; conditions: with elacridar (pretreatment for 0.5 hrs, dose not stated), read-out: K(p,uu,brain)
[8] = Half life in Beagle dog at 1.1 microM/Kg, iv; type: ADME, Canis lupus familiaris; conditions: in vivo
NCI-H358 [9] = experiment: Antiproliferative activity against human NCI-H358 cells harboring KRAS G12C mutant cultured as […] assessed as reduction in cell proliferation incubated for 3 days by CellTiter-Glo reagent based assay; type: functional; conditions: NCI-H358, 72 h
[10] = Hepatic blood flow in Wistar Han rat at 1.1 to 2.3 microM/Kg, iv; type: ADME; conditions: dose 1.1-2.3 µM/Kg
[11] = Oral bioavailability in Wistar Han rat at 2.3 to 6.8 microM/Kg; type: ADME, organism-based; conditions: in vivo, dose 2.3-6.8 µM/Kg
[12] = Hepatic blood flow in Beagle dog at 1.1 microM/Kg, iv; type: ADME, Canis lupus familiaris
[13] = Inhibition of KRAS/MAPK pathway in human Calu-6 cells harboring KRAS Q61K mutant assessed as decrease in p90RSK phosphorylation incubated for 2 hrs by immunofluorescence assay; type: cell-based; conditions: Calu-6, 2 h
[14] = Observed clearance in Beagle dog at 1.1 microM/Kg, iv; type: ADME, Canis lupus familiaris; conditions: in vivo
GTPase KRas = GTPase KRas (Homo sapiens, UniProt P01116, G12C)
[15] = Inhibition of KRAS/MAPK pathway in human PC-9 cells harboring wild-type KRAS assessed as decrease in p90RSK phosphorylation incubated for 2 hrs by immunofluorescence assay; type: cell-based; conditions: PC-9, 2 h
[16] = Inhibition of KRAS/MAPK pathway in human NCI-H358 cells harboring KRAS G12C mutant assessed as decrease in p90RSK phosphorylation incubated for 2 hrs by immunofluorescence assay; type: cell-based; conditions: NCI-H358, 2 h
Mus musculus [17] = organism: Mus musculus; conditions: dose 10-30 mg/kg, route po, time 3.0 hrs
[18] = Unbound brain-to-plasma concentration ratio in Wistar Han rat at 2.3 microM/Kg, iv and measured after 4 hrs; type: ADME, organism-based; conditions: read-out: K(p,uu,brain)
in vitro = conditions: human, liver microsomes, CLH
Description: Microsomal stability in human liver microsomes assessed as intrinsic clearance

[19] = Volume of distribution at steady state in Wistar Han rat at 1.1 to 2.3 microM/Kg, iv; type: ADME; conditions: in vivo, dose 1.1-2.3 µM/Kg, read-out: Vdss
[20] = Volume of distribution at steady state in Beagle dog at 1.1 microM/Kg, iv; type: ADME, Canis lupus familiaris; conditions: in vivo, read-out: Vdss
[21] = […] stability in rat hepatocyte assessed as intrinsic clearance measured per million of cells; type: ADME, cell-based; conditions: hepatocytes
[22] = Unbound brain-to-plasma concentration ratio in Beagle dog at 170 to 680 microM/Kg, po QD for 15 days and measured 2 hrs last dose; type: ADME, organism-based, Canis lupus familiaris; conditions: dose 170-680 µM/Kg, time 15 day, read-out: K(p,uu,brain)
NCI-H358 [23] = experiment: Antiproliferative activity against human NCI-H358 cells harboring KRAS G12C mutant cultured as 3D spheroids assessed as reduction in cell proliferation incubated for 3 days by CellTiter-Glo 3D reagent based assay; type: functional; conditions: NCI-H358, 72 h
[24] = Hepatic extraction ratio in CD-1 mouse at 2.3 microM/Kg, iv; type: ADME; conditions: at 2.3 µmol/kg, read-out: ERH
[25] = Oral bioavailability in CD-1 mouse at 6.8 microM/Kg; type: ADME, organism-based; conditions: in vivo, at 6.8 µmol/kg
[26] = Unbound brain-to-plasma concentration ratio in iv dosed Cynomolgus monkey administered as […] compound by HPLC analysis; type: ADME, organism-based, Macaca fascicularis; conditions: read-out: K(p,uu,brain)
MDR1 and BCRP = experiment: Efflux ratio of apparent permeability in dog MDCK cells transfected with MDR1 and BCRP at 0.1 uM; type: ADME, cell-based, Canis lupus familiaris
[27] = Drug distribution in iv dosed Cynomolgus monkey brain administered as […] compound and assessed as radioactivity and measured 5 to 123 min post dose by PET imaging analysis; type: ADME, organism-based, Macaca fascicularis; conditions: in vivo, time 5-123 min
[28] = Observed clearance in Wistar Han rat at 1.1 to 2.3 microM/Kg, iv; type: ADME; conditions: in vivo, dose 1.1-2.3 µM/Kg
[29] = Oral bioavailability in Beagle dog at 2.3 microM/Kg; type: ADME, organism-based, Canis lupus familiaris; conditions: in vivo, at 2.3 µmol/kg
A549 = experiment: Antiproliferative activity against human A549 cells harboring KRAS G12S mutant cultured as 3D spheroids assessed as reduction in cell proliferation incubated for 3 days by CellTiter-Glo 3D reagent based assay; type: functional; conditions: A549, 72 h
[30] = Free drug concentration in athymic nude mouse plasma xenografted with human NCI-H358 cells harboring KRAS G12C mutant at 30 to 100 mg/kg, po and measured upto 24 hrs; type: ADME, organism-based; conditions: in vivo, dose 30-100 mg/kg
[31] = Half life in Wistar Han rat at 1.1 to 2.3 microM/Kg, iv; type: ADME; conditions: in vivo, dose 1.1-2.3 µM/Kg
[32] = Volume of distribution at steady state in CD-1 mouse at 2.3 microM/Kg, iv; type: ADME; conditions: in vivo

Chain of GTPase KRas (P01116 whole entry G12C): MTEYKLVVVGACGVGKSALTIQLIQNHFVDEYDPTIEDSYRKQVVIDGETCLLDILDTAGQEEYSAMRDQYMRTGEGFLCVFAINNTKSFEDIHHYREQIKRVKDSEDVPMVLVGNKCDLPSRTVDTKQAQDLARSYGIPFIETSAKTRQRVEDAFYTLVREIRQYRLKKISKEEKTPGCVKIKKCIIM

Which results are given for C=CC(=O)N1CCN2Cc3cc(C#CC)c(-c4c(O)cccc4Cl)c(F)c3OC[C@H]2C1?
QH [1]: 152 mL/min/kg; logD [2]: 2.9; inhibition (Mus musculus [3]): Dose-Dependent Effect; hepatic extraction ratio [4]: 0.19; hepatic extraction ratio [5]: 0.75; Activity [6]: Non-Toxic; Kp uu at 1 h [7]: 1; half-life [8]: 102 min; IC50 (NCI-H358 [9]): 360 nM; QH [10]: 72 mL/min/kg; bioavailability [11]: 18%; QH [12]: 55 mL/min/kg; IC50 [13]: > 30 µM; clearance [14]: 10 mL/min/kg; IC50 (GTPase KRas): 15 nM; IC50 [15]: > 30 µM; IC50 [16]: 65 nM; inhibition (Mus musculus [17]): Dose-Dependent Effect; Kp uu at 4 h [18]: 0.11; microsomal CLint (in vitro): 15 µL/min/mg; Vd [19]: 1.7 L/kg; Vd [20]: 1.2 L/kg; CLH [21]: 34 µL/min; Kp uu at 360 h [22]: 0.7; IC50 (NCI-H358 [23]): 12 nM; hepatic extraction ratio [24]: 0.52; bioavailability [25]: 58%; Kp uu [26]: 1.6; efflux ratio at 0.1 µM (MDR1 and BCRP): 1.1; Drug uptake [27]: Active; clearance [28]: 54 mL/min/kg; bioavailability [29]: 63%; IC50 (A549): 23.3 µM; Cp(f) [30]: 0.04 µM; half-life [31]: 33.6 min; Vdss [32]: 2.9 L/kg
